Values joined by “and” are separate entries in the source; they are usually repeats but may differ in a detail not shown here. Equal values may be shown once.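 Cells were grown in 96-well plates and exposed to each compound for 48 hours at five concentrations; endpoints were interpolated linearly between bracketing concentrations, or set to the highest concentration if not reached. The concentration for 50% growth inhibition is given as GI50. TGI: total growth inhibition.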
Assays:
Test in all cases: NCI-60 cell line screen, 48 h
[1] = tested on: A549 NSCLC
[2] = tested on: ACHN renal
[3] = tested on: DU-145 prostate
[4] = tested on: HCC-2998 colon
[5] = tested on: HOP-62 NSCLC
[6] = tested on: HS 578T breast
[7] = tested on: NCI/ADR-RES ovarian
[8] = tested on: OVCAR-3 ovarian
[9] = tested on: OVCAR-5 ovarian
[10] = tested on: RPMI-8226 leukemia
[11] = tested on: SF-295 CNS
[12] = tested on: SF-539 CNS
[13] = tested on: SK-MEL-28 melanoma
[14] = tested on: SK-MEL-5 melanoma
[15] = tested on: SN12C renal
[16] = tested on: SNB-75 CNS
[17] = tested on: SR leukemia
[18] = tested on: TK-10 renal
[19] = tested on: UACC-62 melanoma

| SMILES | TGI [1] | TGI [2] | TGI [3] | TGI [4] | TGI [5] | TGI [6] | TGI [7] | TGI [8] | TGI [9] | TGI [10] | TGI [11] | TGI [12] | TGI [13] | TGI [14] | TGI [15] | TGI [16] | TGI [17] | TGI [18] | TGI [19] | GI50 [1] |
| --- | --- | --- | --- | --- | --- | --- | --- | --- | --- | --- | --- | --- | --- | --- | --- | --- | --- | --- | --- | --- |
| CCOC(=O)c1c(N2CCCC2)[nH]c(=O)c(C(c2ccc(Cl)c([N+](=O)[O-])c2)c2c(O)c(C(=O)OCC)c(N3CCCC3)[nH]c2=O)c1O | > 100 µM | > 100 µM | > 100 µM | > 100 µM | > 100 µM | > 100 µM | 73.4 µM | > 100 µM | > 100 µM | > 100 µM | > 100 µM | 41.6 µM | > 100 µM | > 100 µM | > 100 µM | 34.4 µM | > 100 µM | 59.2 µM | 86 µM |  |
| O=C(CC(C(=O)c1ccsc1)c1ccsc1)c1ccsc1 (stereo not given) | > 100 µM | > 100 µM | > 100 µM | > 100 µM | > 100 µM | > 100 µM | > 100 µM |  |  | > 100 µM | > 100 µM | > 100 µM | > 100 µM | > 100 µM | > 100 µM | > 100 µM | > 100 µM | > 100 µM | > 100 µM |  |
| O=CC1C(Cl)=Nc2nc3ccccc3n2C1c1ccccc1 (stereo not given) | 76.6 µM | 33.3 µM | 31.4 µM | 34.8 µM | 44.2 µM | 25.4 µM | 65.6 µM | 43.2 µM | 79.6 µM | 43.8 µM | > 100 µM | 34 µM | 30.3 µM | 45.5 µM | 44.8 µM | 33.7 µM | 14.4 µM | 51.4 µM | 50 µM |  |
| O=[N+]([O-])c1ccc2sc(/C=N/c3ccccn3)cc2c1 | > 100 µM | > 100 µM | > 100 µM | > 100 µM | > 100 µM | > 100 µM | > 100 µM | > 100 µM | > 100 µM | 88.9 µM | > 100 µM | > 100 µM | > 100 µM | > 100 µM | > 100 µM | > 100 µM | 89.4 µM | > 100 µM | > 100 µM |  |
| C=CCNC1=C2C[C@@H](C)C[C@H](OC)[C@H](O)[C@@H](C)/C=C(\C)[C@H](OC(N)=O)[C@@H](OC)/C=C\C=C(/C)C(=O)NC(=CC1=O)C2=O | 17.8 µM | 32.2 µM | 7.33 µM | 2.82 µM | 23.1 µM | 47.5 µM | 57.3 µM | 9.64 µM | 22.6 µM | 26.2 µM | 7.46 µM | 9.5 µM | 32.5 µM | 16.5 µM | 19.4 µM | 2.72 µM | 10.3 µM | 48.3 µM | 4.8 µM |  |
| c1ccc2c(c1)c1c3c(c4c(n32)=NCCN4)CCC1 | > 100 µM | > 100 µM | > 100 µM | > 100 µM | > 100 µM | > 100 µM | 99.7 µM | > 100 µM | > 100 µM | 63.2 µM | > 100 µM | > 100 µM | > 100 µM | > 100 µM | 49.4 µM | 71.5 µM | 47.4 µM | > 100 µM | > 100 µM |  |
| Nc1nc(Cl)c2ncn(Cc3cccc(CCl)c3)c2n1 | 29.9 µM | 12.4 µM | 18.6 µM | 4.86 µM | 9.48 µM | 36.9 µM | 11.5 µM | 3.74 µM | 22.8 µM | 9.81 µM | 21.3 µM | 20 µM | 23.9 µM | 15.9 µM | 22.4 µM | 26.8 µM | > 28.3 µM | 22.1 µM | 10.9 µM |  |
| CO[C@]12S[C@@H]3CCCC[C@@]31C(C)(C)C(=O)N2c1ccccc1 | > 100 µM | > 100 µM | > 100 µM | > 100 µM | 53.5 µM | > 100 µM | 78.8 µM | 38.5 µM | > 100 µM | 73 µM | 51.1 µM | 28.6 µM | > 100 µM | 43.3 µM | 56.7 µM | > 100 µM | > 100 µM | > 100 µM | > 100 µM |  |
| CC(C)OC(=O)[C@H]1ON2O[C@H](O[C@@H]3CCCC[C@H]3c3ccccc3)C([Si](C)(C)c3ccccc3)[C@H]3OC(=O)[C@@H]1C32 (stereo not given in full) | > 100 µM | > 100 µM | > 100 µM | > 100 µM | > 100 µM | > 100 µM | > 100 µM | > 100 µM |  | > 100 µM | > 100 µM | > 100 µM | > 100 µM | > 100 µM | > 100 µM | > 100 µM | 54.2 µM | > 100 µM | > 100 µM |  |
| O=C1OCC(c2ccc(Cl)cc2)=C1Cl | > 100 µM | > 100 µM | > 100 µM | 47.8 µM | 56 µM | > 100 µM | 55.8 µM | 44.4 µM | 44.4 µM | 86.2 µM | > 100 µM | > 100 µM | > 100 µM | 31.5 µM | 80.4 µM | > 100 µM | 39.2 µM | 60.6 µM | 45.9 µM |  |
| COc1ccccc1/C=C1\S/C(=N/Nc2nc(C)c(C(C)=O)s2)NC1=O | > 100 µM | > 100 µM | > 100 µM | > 100 µM | > 100 µM | 70.1 µM | > 100 µM | 56.1 µM | > 100 µM | 89.4 µM | > 100 µM | > 100 µM | > 100 µM | 47.7 µM | > 100 µM | 61 µM | > 100 µM | > 100 µM | > 100 µM |  |
| COc1ccc2c(c1)C(OC)C1c3c(cc4c(c3-2)OCO4)CCN1C (stereo not given) | 9.87 µM | 8.03 µM | > 52 µM | 14.3 µM | 8.34 µM | 5.35 µM | 7.45 µM | 25.1 µM | 16.8 µM | 20.6 µM | 11.7 µM | 8.38 µM | 19.8 µM | 5.17 µM | 12.1 µM | 15.6 µM | > 42.3 µM | > 63.8 µM | 5.08 µM |  |
| O=S(=O)(O)c1ccc2c(N=Nc3ccc(S(=O)(=O)O)c4ccccc34)c(O)c(S(=O)(=O)O)cc2c1 | > 100 µM | > 100 µM | > 100 µM | > 100 µM | > 100 µM | > 100 µM | > 100 µM | > 100 µM | > 100 µM | > 100 µM | > 100 µM | > 100 µM | > 100 µM | > 100 µM | > 100 µM | > 100 µM | > 100 µM | > 100 µM | > 100 µM | 28.7 µM and > 100 µM |
| Nc1ncc(C=O)c(NCC2(CO)CCC2)n1 | > 100 µM |  | > 100 µM | > 100 µM | > 100 µM | > 100 µM | > 100 µM | > 100 µM | > 100 µM | > 100 µM | > 100 µM | > 100 µM |  | 86.9 µM | > 100 µM | > 100 µM | > 100 µM | 73.8 µM | 81.2 µM |  |
| CCOC(=O)CCC(NC(=O)c1ccc(Oc2nc3c(N)cc(C(F)(F)F)cc3nc2-c2ccccc2)cc1)C(=O)OCC (stereo not given) | > 100 µM | > 69.6 µM | > 64.8 µM | > 100 µM | 28.5 µM | > 72.8 µM | > 100 µM | > 30.9 µM | > 100 µM | > 100 µM | 96.8 µM | 8.48 µM | > 100 µM | > 100 µM | > 100 µM | 25.4 µM | > 100 µM | > 100 µM | > 100 µM |  |
| COc1ccc(N=Nc2ccc3oc(=O)c(C(=O)Nc4ccccc4C)cc3c2)cc1 |  | > 10 µM | > 10 µM | > 10 µM | > 10 µM | > 10 µM | > 10 µM | > 10 µM | > 10 µM | > 10 µM | > 10 µM | > 10 µM | > 10 µM | > 10 µM | > 10 µM | > 10 µM | > 10 µM | > 10 µM |  |  |
| CCOC(=O)C1C(c2ccc(OC)cc2)c2c([nH][nH]c2=O)CC1(C)O (stereo not given) | > 100 µM | > 100 µM | > 100 µM | > 100 µM | > 100 µM | > 100 µM | > 100 µM | > 100 µM | > 100 µM | > 100 µM | > 100 µM | > 100 µM | > 100 µM | > 100 µM | > 100 µM | > 100 µM | > 100 µM | > 100 µM | > 100 µM |  |
| CC/C(Cl)=N\OC(=O)Nc1ccc(OC)c(C)c1 | > 71.4 µM | 21.5 µM | > 100 µM | 43.2 µM | > 82.5 µM | 59.2 µM | 37.5 µM | 50 µM | 71.6 µM | > 55.8 µM | > 100 µM | 42 µM | 62 µM | 39.1 µM | 32.4 µM | > 100 µM | 26.9 µM | 41.7 µM | 28.9 µM |  |
| CCS(=O)c1c2cc(OC)ccc2nc2ccc(OC)cc12 (stereo not given) | 51.1 µM | 13 µM | 6.49 µM | 41.8 µM | 51.1 µM | 38.9 µM | 44.6 µM | 14.9 µM | 41.7 µM | 16.5 µM | 63.4 µM | > 59 µM | 23.4 µM | 30.3 µM | 8.99 µM | 38.2 µM | > 25 µM | 10.3 µM | 33.4 µM |  |

From PubChem BioAssay (NCI)
